Results published in the supplement of paper PMC8612539.
Values after ≈ are worked out from the molar mass of the structure shown.

Tests used:
Enterococcus spp. = experiment: minimum inhibitory concentration (MIC)
Protocol: (§1)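 Broth microdilution MIC (Sensititre BOPO7F bovine plate, CLSI methods) of 19 antimicrobials against field isolates of P. multocida, M. haemolytica, H. somni (deep nasopharyngeal swabs) and E. coli, Enterococcus spp. (rectal swabs) from weaned dairy heifers. Incubation 16-24 h at 35 C. MIC is the lowest concentration preventing visible growth. Values with <= or > lie at the tested range limits. Trimethoprim-sulfamethoxazole is given as the trimethoprim component of a 1:19 mixture.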

Histophilus somni = experiment: minimum inhibitory concentration (MIC)
Protocol: as §1

CC1(C)S[C@@H]2[C@H](NC(=O)Cc3ccccc3)C(=O)N2[C@H]1C(=O)O [Penicillin]
minimum inhibitory concentration [µg/mL]
Details	Enterococcus spp.	Histophilus somni
isolate (source animal id): 2	≤ 0.12	–
isolate (source animal id): 3	–	≤ 0.12
isolate (source animal id): 4	–	≤ 0.12
isolate (source animal id): 7	–	≤ 0.12
isolate (source animal id): 14	–	≤ 0.12
isolate (source animal id): 15	–	0.25 (≈ 0.748 µM)
isolate (source animal id): 17	–	≤ 0.12
isolate (source animal id): 18	–	≤ 0.12
isolate (source animal id): 20	–	≤ 0.12
isolate (source animal id): 23	–	≤ 0.12
isolate (source animal id): 35	2 (≈ 5.98 µM)	–
isolate (source animal id): 42	2 (≈ 5.98 µM)	–
isolate (source animal id): 44	2 (≈ 5.98 µM)	–
isolate (source animal id): 45	–	≤ 0.12
isolate (source animal id): 53	–	≤ 0.12
isolate (source animal id): 79	2 (≈ 5.98 µM)	–
isolate (source animal id): 83	–	≤ 0.12
isolate (source animal id): 88	≤ 0.12	≤ 0.12
isolate (source animal id): 91	≤ 0.12	–
isolate (source animal id): 92	0.5 (≈ 1.5 µM)	≤ 0.12
isolate (source animal id): 93	–	≤ 0.12
isolate (source animal id): 99	–	≤ 0.12
isolate (source animal id): 100	–	≤ 0.12
isolate (source animal id): 105	–	≤ 0.12
isolate (source animal id): 107	–	≤ 0.12
isolate (source animal id): 108	–	≤ 0.12
isolate (source animal id): 109	–	≤ 0.12
isolate (source animal id): 110	–	≤ 0.12
isolate (source animal id): 111	≤ 0.12	–
isolate (source animal id): 117	–	≤ 0.12
isolate (source animal id): 121	–	≤ 0.12
isolate (source animal id): 122	2 (≈ 5.98 µM)	–
isolate (source animal id): 123	1 (≈ 2.99 µM)	≤ 0.12
isolate (source animal id): 124	–	≤ 0.12
isolate (source animal id): 127	–	≤ 0.12
isolate (source animal id): 128	–	≤ 0.12
isolate (source animal id): 130	–	≤ 0.12
isolate (source animal id): 132	–	≤ 0.12
isolate (source animal id): 133	1 (≈ 2.99 µM)	–
isolate (source animal id): 135	–	≤ 0.12
isolate (source animal id): 140	–	≤ 0.12
isolate (source animal id): 141	–	≤ 0.12
isolate (source animal id): 142	–	≤ 0.12
isolate (source animal id): 144	–	≤ 0.12
isolate (source animal id): 146	–	≤ 0.12
isolate (source animal id): 147	–	≤ 0.12
isolate (source animal id): 151	–	≤ 0.12
isolate (source animal id): 153	–	≤ 0.12
isolate (source animal id): 154	–	≤ 0.12
isolate (source animal id): 156	–	≤ 0.12
isolate (source animal id): 157	–	≤ 0.12
isolate (source animal id): 158	2 (≈ 5.98 µM)	–
isolate (source animal id): 168	4 (≈ 12 µM)	–
isolate (source animal id): 169	4 (≈ 12 µM)	–
isolate (source animal id): 171	1 (≈ 2.99 µM)	–
isolate (source animal id): 175	4 (≈ 12 µM)	–
isolate (source animal id): 176	–	≤ 0.12
isolate (source animal id): 177	2 (≈ 5.98 µM)	–
isolate (source animal id): 181	4 (≈ 12 µM)	–
isolate (source animal id): 182	4 (≈ 12 µM)	–
isolate (source animal id): 183	2 (≈ 5.98 µM)	≤ 0.12
isolate (source animal id): 186	–	≤ 0.12
isolate (source animal id): 187	4 (≈ 12 µM)	–
isolate (source animal id): 190	4 (≈ 12 µM)	–
isolate (source animal id): 194	1 (≈ 2.99 µM)	–
isolate (source animal id): 195	4 (≈ 12 µM)	–
isolate (source animal id): 196	–	≤ 0.12
isolate (source animal id): 197	0.5 (≈ 1.5 µM)	–
isolate (source animal id): 198	–	≤ 0.12
isolate (source animal id): 200	–	≤ 0.12
isolate (source animal id): 206	–	≤ 0.12
isolate (source animal id): 208	–	≤ 0.12
isolate (source animal id): 210	–	≤ 0.12
isolate (source animal id): 211	4 (≈ 12 µM)	–
isolate (source animal id): 212	–	≤ 0.12
isolate (source animal id): 214	2 (≈ 5.98 µM)	–
isolate (source animal id): 215	–	≤ 0.12
isolate (source animal id): 216	–	≤ 0.12
isolate (source animal id): 218	–	≤ 0.12
isolate (source animal id): 219	–	≤ 0.12
isolate (source animal id): 222	1 (≈ 2.99 µM)	–
isolate (source animal id): 223	1 (≈ 2.99 µM)	–
isolate (source animal id): 224	–	≤ 0.12
isolate (source animal id): 228	2 (≈ 5.98 µM)	≤ 0.12
isolate (source animal id): 230	8 (≈ 23.9 µM)	≤ 0.12
isolate (source animal id): 233	–	≤ 0.12
isolate (source animal id): 235	2 (≈ 5.98 µM)	–
isolate (source animal id): 236	2 (≈ 5.98 µM)	–
isolate (source animal id): 238	–	≤ 0.12
isolate (source animal id): 239	1 (≈ 2.99 µM)	≤ 0.12
isolate (source animal id): 241	4 (≈ 12 µM)	≤ 0.12
isolate (source animal id): 242	–	≤ 0.12
isolate (source animal id): 243	–	≤ 0.12
isolate (source animal id): 244	1 (≈ 2.99 µM)	–
isolate (source animal id): 245	–	0.25 (≈ 0.748 µM)
isolate (source animal id): 246	1 (≈ 2.99 µM)	≤ 0.12
isolate (source animal id): 247	8 (≈ 23.9 µM)	≤ 0.12
isolate (source animal id): 248	–	≤ 0.12
isolate (source animal id): 250	1 (≈ 2.99 µM)	≤ 0.12
isolate (source animal id): 251	–	≤ 0.12
isolate (source animal id): 252	2 (≈ 5.98 µM)	≤ 0.12
isolate (source animal id): 254	–	0.25 (≈ 0.748 µM)
isolate (source animal id): 258	–	≤ 0.12
isolate (source animal id): 259	–	≤ 0.12
isolate (source animal id): 262	–	≤ 0.12
isolate (source animal id): 264	–	≤ 0.12
isolate (source animal id): 265	–	8 (≈ 23.9 µM)
isolate (source animal id): 266	–	≤ 0.12
isolate (source animal id): 267	–	≤ 0.12
isolate (source animal id): 268	≤ 0.12	–
isolate (source animal id): 269	–	≤ 0.12
isolate (source animal id): 271	–	≤ 0.12
isolate (source animal id): 272	–	8 (≈ 23.9 µM)
isolate (source animal id): 274	–	≤ 0.12
isolate (source animal id): 276	–	≤ 0.12
isolate (source animal id): 278	–	≤ 0.12
isolate (source animal id): 280	–	0.5 (≈ 1.5 µM)
isolate (source animal id): 281	–	≤ 0.12
isolate (source animal id): 282	2 (≈ 5.98 µM)	–
isolate (source animal id): 283	–	0.25 (≈ 0.748 µM)
isolate (source animal id): 285	2 (≈ 5.98 µM)	–
isolate (source animal id): 288	–	≤ 0.12
isolate (source animal id): 289	0.5 (≈ 1.5 µM)	–
isolate (source animal id): 290	0.25 (≈ 0.748 µM)	–
isolate (source animal id): 291	–	≤ 0.12
isolate (source animal id): 292	–	≤ 0.12
isolate (source animal id): 296	0.5 (≈ 1.5 µM)	≤ 0.12
isolate (source animal id): 298	≤ 0.12	–
isolate (source animal id): 301	≤ 0.12	–
isolate (source animal id): 306	–	≤ 0.12
isolate (source animal id): 310	4 (≈ 12 µM)	–
isolate (source animal id): 320	0.5 (≈ 1.5 µM)	–
isolate (source animal id): 331	≤ 0.12	–
isolate (source animal id): 333	0.25 (≈ 0.748 µM)	–
isolate (source animal id): 336	–	≤ 0.12
isolate (source animal id): 337	–	≤ 0.12
isolate (source animal id): 341	2 (≈ 5.98 µM)	≤ 0.12
